Laboratory results as given in patent US20130190407A1, “CALCIUM RECEPTOR-ACTIVE MOLECULES” (NPS Pharmaceuticals, Inc., priority 1991, published 2013).
Structures can show the parent of a compound that is named as a salt. Where two headings read alike, the source gives them in different places.

How the values were obtained:
Sprague-Dawley rats = test: Serum/plasma Ca2+, PTH and calcitonin in rats in vivo; set-up: species or system rat; conditions: i.p.
Method: Compounds shown to activate the bovine parathyroid cell calcium receptor in vitro were tested for hypocalcemic activity in vivo. Male Sprague-Dawley rats (200 g) were maintained on a low calcium diet for one week prior to receiving test substance or vehicle as control. Blood was collected from the tail vein three hours after the intra-peritoneal administration of NPS 467. […] Serum total calcium, albumin and phosphate were measured by techniques well known in the art.
Rats (male, Sprague-Dawley, 250-300 g) were fed standard rat chow and fasted overnight prior to the experiment. NPS R-467 was suspended in corn oil, and administered as a single oral dose through a gavage needle. Three hours later a sample of blood was taken from the tail vein and assessed for ionized Ca^2+ levels.

[1] = target: T1, parathyroid cell calcium receptor (Bos taurus, UniProt P35384); test: Mobilization of intracellular Ca2+ ([Ca2+]i, fura-2) in bovine parathyroid cells; format: cell-based; set-up: Parathyroid glands were obtained from freshly slaughtered calves (12-15 weeks old); endogenous in cells; host or cells: dissociated primary bovine (calf) parathyroid cells; conditions: for compounds with any effect on basal [Ca2+]i or increases evoked by extracellular Ca2+: tested at 1 μM; for influx of extracellular Ca2+ / potentiation of Ca2+ mobilization / transient increases in [Ca2+]i: verapamil, D-600, TMB-8 100 μM, NPS 384 300 μM
T1 sequence (P35384 20-1085): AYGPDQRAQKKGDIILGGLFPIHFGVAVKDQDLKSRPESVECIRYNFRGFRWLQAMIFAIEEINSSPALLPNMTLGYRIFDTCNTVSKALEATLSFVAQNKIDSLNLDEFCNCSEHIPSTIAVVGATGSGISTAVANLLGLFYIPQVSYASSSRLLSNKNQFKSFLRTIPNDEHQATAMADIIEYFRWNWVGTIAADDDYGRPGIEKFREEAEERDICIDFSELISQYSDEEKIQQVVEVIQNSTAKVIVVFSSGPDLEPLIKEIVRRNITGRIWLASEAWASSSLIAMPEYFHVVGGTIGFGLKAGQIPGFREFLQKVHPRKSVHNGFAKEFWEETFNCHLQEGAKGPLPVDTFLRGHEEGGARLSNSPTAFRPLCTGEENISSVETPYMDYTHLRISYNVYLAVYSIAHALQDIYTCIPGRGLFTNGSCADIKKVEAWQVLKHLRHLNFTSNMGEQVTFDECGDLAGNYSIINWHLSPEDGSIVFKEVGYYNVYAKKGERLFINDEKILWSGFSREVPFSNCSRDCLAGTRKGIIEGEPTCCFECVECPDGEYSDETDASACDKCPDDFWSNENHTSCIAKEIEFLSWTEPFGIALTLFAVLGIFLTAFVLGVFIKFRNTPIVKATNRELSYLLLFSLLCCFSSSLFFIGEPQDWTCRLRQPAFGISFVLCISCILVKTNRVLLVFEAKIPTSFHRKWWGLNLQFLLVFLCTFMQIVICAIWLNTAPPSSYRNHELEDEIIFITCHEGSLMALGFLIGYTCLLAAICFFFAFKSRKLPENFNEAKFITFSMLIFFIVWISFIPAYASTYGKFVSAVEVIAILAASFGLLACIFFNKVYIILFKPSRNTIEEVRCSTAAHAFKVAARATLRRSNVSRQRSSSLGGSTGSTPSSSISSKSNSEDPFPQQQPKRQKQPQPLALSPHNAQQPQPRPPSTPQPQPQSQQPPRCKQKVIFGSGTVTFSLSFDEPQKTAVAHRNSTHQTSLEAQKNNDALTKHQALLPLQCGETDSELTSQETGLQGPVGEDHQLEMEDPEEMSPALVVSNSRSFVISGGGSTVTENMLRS
Method: This section describes procedures used to obtain and treat parathyroid cells from calves and humans. […] Human parathyroid glands, were obtained from patients undergoing surgical removal of parathyroid tissue for primary or uremic hyperparathyroidism (uremic HPT), and were treated similarly to bovine tissue.
Glands were trimmed of excess fat and connective tissue and then minced with fine scissors into cubes approximately 2-3 mm on a side. Dissociated parathyroid cells were prepared by collagenase digestion and then purified by centrifugation in Percoll buffer. The resultant parathyroid cell preparation was essentially devoid of red blood cells, adipocytes, and capillary tissue as assessed by phase contrast microscopy and Sudan black B staining. Dissociated and purified parathyroid cells were present as small clusters containing 5 to 20 cells.
The cells were then pelleted, resuspended in the same buffer, but lacking the ester, and incubated a further 15 minutes at 37° C. The cells were subsequently washed twice with PCB containing 0.5 mM CaCl2 and 0.5% BSA and maintained at room temperature (about 20° C.) Immediately before use, the cells were diluted five-fold with prewarmed 0.5 mM CaCl2-PCB to obtain a final BSA concentration of 0.1%. The concentration of cells in the cuvette used for fluorescence recording was 1−2×10^6/ml.
The fluorescence of indicator-loaded cells was measured at 37° C. in a spectrofluorimeter (Biomedical Instrumentation Group, University of Pennsylvania, Philadelphia, Pa.) equipped with a thermostated cuvette holder and magnetic stirrer using excitation and emission wavelengths of 340 and 510 nm, respectively. […] Leakage of dye is dependent on temperature and most occurs within the first 2 minutes after warming the cells in the cuvette. Dye leakage increases only very slowly thereafter. To correct the calibration for dye leakage, cells were placed in the cuvette and stirred at 37° C. for 2-3 minutes. The cell suspension was then removed, the cells pelleted, and the supernatant returned to a clean cuvette. […] This estimate was subtracted from the apparent Fmin.

[2] = target: bovine parathyroid cell calcium receptor (bovine) (UniProt P35384); test: cell-based or functional assay
[3] = EC50 for mobilization of intracellular Ca2+, bovine parathyroid cells
[4] = Table 8 (arylalkylamine calcimimetics), parathyroid cell calcium receptor in vitro, read-out: EC50
[5] = 100 to 1000 μM, buffer containing 2 mM CaCl2

## COc1cccc(C(C)NCCCc2ccccc2)c1 (racemic) [NPS 467]
Sprague-Dawley rats
  time course of hypocalcemic effect: maximal within three hours
Sprague-Dawley rats; three hours, low calcium diet
  serum or whole blood Ca2+: dose-dependent reduction in serum or whole blood Ca^2+
Sprague-Dawley rats; preliminary studies
  circulating levels of PTH: dose-dependent reduction in circulating levels of PTH

## CC1=C(C(=O)OC(C)C)[C@H](c2cccc3nonc23)C([N+](=O)[O-])=C(C)N1 [(+) 202-791]
[1]
  compounds with any effect on basal [Ca2+]i or increases evoked by extracellular Ca2+: None

## CC1=C(C(=O)OC(C)C)[C@@H](c2cccc3nonc23)C([N+](=O)[O-])=C(C)N1 [(−) 202-791]
[1]
  compounds with any effect on basal [Ca2+]i or increases evoked by extracellular Ca2+: None

## N=C(N)NCCC[C@H](N)C(=O)NCCCNCCCNCCCCCNC(=O)[C@H](CC(N)=O)NC(=O)Cc1ccc(O)cc1O [Argiotoxin-636, argiotoxin 636]
[1]; 400 μM
  effect on cytosolic Ca2+ responses to subsequent extracellular Ca2+: did potentiate cytosolic Ca^2+ responses
  increases in [Ca2+]i: did not elicit increases in [Ca^2+]
[1]; tested at 100 to 300 μM
  effect on [Ca2+]i: no effect

## N=C(N)NCCC[C@H](N)C(=O)NCCCNCCCNCCCCCNC(=O)[C@H](CC(N)=O)NC(=O)Cc1c[nH]c2cccc(O)c12 [Argiotoxin-659, argiotoxin 659]
[1]; tested at 100 to 300 μM
  effect on [Ca2+]i: evoked transient increases in [Ca^2+]i

## COC(=O)C1=C(C)NC(C)=C([N+](=O)[O-])C1c1ccccc1C(F)(F)F (stereo not drawn) [BAY K 8644]
[1]
  compounds with any effect on basal [Ca2+]i or increases evoked by extracellular Ca2+: None

## NCCCCCN [Cadaverine, cadaverine]
[1]; tested at 2 mM
  effect on mobilization of intracellular Ca2+: inactive

## CSc1cccc(C(C)NCCCc2ccccc2)c1 (stereo not drawn) [Compound 8J, N-(3-Phenylpropyl)-1-(3-thiomethylphenyl)ethylamine hydrochloride]
[1]; [3]
  EC50: < 5000 nM
[1]; [4]
  EC50: 780 nM

## CC(C)c1ccc(CN[C@H](C)c2cccc3ccccc23)cc1 [Compound 11X, (R)—N-(4-Isopropylbenzyl)-1-(1-naphthyl)ethylamine hydrochloride]
[1]; [3]
  EC50: < 5000 nM

## C[C@@H](NCCCc1ccccc1Cl)c1cccc2ccccc12 [Compound 12Z, (R)—N-3-(2-Chlorophenyl)-1-propyl-1-(1-naphthyl)ethylamine hydrochloride]
[1]; [3]
  EC50: < 5000 nM

## COc1ccc([C@@H](C)N[C@H](C)c2cccc3ccccc23)cc1 [Compound 14U, (R,R)—N-(1-(4-Methoxyphenyl)ethyl)-1-(1-naphthyl)ethylamine hydrochloride]
[1]; [3]
  EC50: < 5000 nM
[1]; [4]
  EC50: 130 nM

## COc1ccc(CN[C@H](C)c2cccc3ccccc23)cc1Cl [Compound 17M, (R)—N-(3-Chloro-4-methoxybenzyl)-1-(1-naphthyl)ethylamine hydrochloride]
[1]; [3]
  EC50: < 5000 nM
[1]; [4]
  EC50: 150 nM

## COc1ccc([C@@H](C)N[C@H](C)c2cccc3ccccc23)cc1C [Compound 17P, (R,R)—N-(1-(4-Methoxy-3-methylphenyl)ethyl)-1-(1-naphthyl)ethylamine hydrochloride]
[1]; [3]
  EC50: < 5000 nM
[1]; [4]
  EC50: 40 nM

## COc1ccc(CCCN[C@H](C)c2cccc(OC)c2)cc1 [Compound 20I]
[1]; [4]
  EC50: < 1000 nM

## COc1ccc(CCN(C)CCCC(C#N)(c2cc(OC)c(OC)c(OC)c2)C(C)C)cc1OC [Compound D-600]
[1]
  influx of extracellular Ca2+: blocked the influx of extracellular Ca^2+
  potentiation of Ca2+ mobilization / transient increases in [Ca2+]i: potentiated the mobilization of intracellular Ca^2+

## C1CNCCNCCNCCNCCNCCN1 [Hexacyclen, 1,4,7,10,13,16-hexaaza-cyclooctadecane]
[1]
  potency relative to NPS 383: 7 fold
  potency relative to pentaethylenehexamine: 25 fold

## CCC[C@@H]1C[C@@H](C(=O)N[C@@H]([C@H]2O[C@H](SC)[C@H](O)[C@@H](O)[C@H]2O)[C@@H](C)O)N(C)C1 [Lincomycin, lincomycin]
[1]; tested at 500 μM
  effect on mobilization of intracellular Ca2+: without effect

## NCCCCCCCCCCCCNC(=O)Cc1ccc(O)cc1O [NPS 021]
[1]; around 500 μM
  increase in [Ca2+]i evoked by extracellular Ca2+: abolished
[1]; low [Ca2+] 0.5 mM
  change in [Ca2+]i by itself: does not by itself cause any change in [Ca^2+]i

## COc1ccc(CC(=O)NCCCCCCCCCCCCN)cc1OC [NPS 384]
[1]; 300 μM
  increase in [Ca2+]i: did not evoke an increase in [Ca^2+]i
[1]; [5]
  effect on [Ca2+]i: prompt fall in [Ca^2+]i
[1]
  influx of extracellular Ca2+: blocked influx of extracellular Ca^2+
  potentiation of Ca2+ mobilization / transient increases in [Ca2+]i: fails to do so

## NCCCCCCCCCCCCN [NPS 472, 1,12-diaminododecane]
[1]; [5]
  effect on [Ca2+]i: prompt fall in [Ca^2+]i

## NCCCCN [Putrescine]
[1]; tested at 2 mM
  effect on mobilization of intracellular Ca2+: inactive

## CCN(CC)CCCCCCCCOC(=O)c1cc(OC)c(OC)c(OC)c1 [TMB-8]
[1]
  influx of extracellular Ca2+: blocked the influx of extracellular Ca^2+
  potentiation of Ca2+ mobilization / transient increases in [Ca2+]i: potentiated the mobilization of intracellular Ca^2+
[1]; listed as TNB-8
  potentiation of Ca2+ mobilization / transient increases in [Ca2+]i: potentiated transient increases in [Ca^2+]i

## COc1ccc([C@@H]2Sc3ccccc3N(CCN(C)C)C(=O)[C@@H]2OC(C)=O)cc1 [diltiazem]
[1]; 100 μM
  activity like verapamil and D-600: effective

## N[C@@H](CCC(=O)O)C(=O)O [glutamate]
[1]; bovine parathyroid cells or Xenopus oocytes expressing calcium receptors
  response to mGluR agonists: did not respond

## COc1cccc(C(C)NCCC(c2ccccc2)c2ccccc2)c1 (stereo not drawn) [meta-Methoxyfendiline]
[1]; racemic mixture
  potency in mobilization of intracellular Ca2+: as potent as NPS 467

## Philanthotoxin-433
[1]; tested at 500 μM
  effect on mobilization of intracellular Ca2+: without effect

## polyArg (100) (peptide)
[2]
  EC50 for the mobilization of intracellular Ca^2+ (fura-2, bovine parathyroid cells): 4 nM

## polyArgTyr (22) (peptide)
[2]
  EC50 for mobilizing intracellular Ca^2+: < 100 nM
  EC50 for the mobilization of intracellular Ca^2+ (fura-2, bovine parathyroid cells): 200 nM

## polyLys (3.8) (peptide)
[2]
  EC50 for the mobilization of intracellular Ca^2+ (fura-2, bovine parathyroid cells): 3000 nM

## polyLys (14) (peptide)
[2]
  EC50 for the mobilization of intracellular Ca^2+ (fura-2, bovine parathyroid cells): 1000 nM

## polyLys (27) (peptide)
[2]
  EC50 for the mobilization of intracellular Ca^2+ (fura-2, bovine parathyroid cells): 30 nM

## protamine (peptide)
[2]
  cyclic AMP (% of control), isoproterenol-stimulated, 2 ug/ml protamine, +PTx: 89 % of control
  cyclic AMP (% of control), isoproterenol-stimulated, 2 ug/ml protamine, control: 20 % of control
  potency in mobilizing intracellular Ca^2+ in parathyroid cells (EC50): 40 nM
